Where two headings read alike, the source gives them in different places.
Biological target: T1, LRT (GST-tagged N-terminal LRT domain of BteA) (Bordetella pertussis, UniProt Q7VSD3)
T1 construct: gene BP0500; N-terminal lipid raft targeting (membrane localization) domain, aa 1-130 of 656; N-terminal GST tag (pGEX-6P1) kept; E. coli Rosetta 2
Test: SPR steady state, immobilized liposomes
Format: binding

T1 sequence (Q7VSD3 entry or part of it): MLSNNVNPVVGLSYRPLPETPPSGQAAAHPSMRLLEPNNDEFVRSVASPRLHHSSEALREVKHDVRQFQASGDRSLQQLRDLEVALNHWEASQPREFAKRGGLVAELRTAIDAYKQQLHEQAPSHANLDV

With `CCCCCCCC/C=C\CCCCCCCC(=O)O[C@H](COC(=O)CCCCCCCCCCCCCCC)COP(=O)(O)O` [PA] as the compound, how does the Kd (read-out: KD (apparent), PA/PC 5:95 (mol) liposomes, 100 nm, 50 mM Tris-HCl pH 7.4, 150 mM NaCl, 0.005% Tween-20, 25 °C, Kd in terms of protein concentration) read?
Its Kd is 492 ± 86 nM.

With `CCCCCCCC/C=C\CCCCCCCC(=O)OC[C@H](COP(=O)(O)O[C@@H]1[C@H](O)[C@H](O)[C@@H](OP(=O)(O)O)[C@H](OP(=O)(O)O)[C@H]1O)OC(=O)CCCCCCC/C=C\CCCCCCCC` [PIP2] as the compound, how does the Kd read?
Its Kd is 446 ± 65 nM.

Which Kd (read-out: KD (apparent), PS/PC 20:80 (mol) liposomes, 100 nm, 50 mM Tris-HCl pH 7.4, 150 mM NaCl, 0.005% Tween-20, 25 °C, Kd in terms of protein concentration, unit nM shared in the sentence, abstract gives ∼1.2 μM) does the source give for `CCCCCCCC/C=C\CCCCCCCC(=O)O[C@H](COC(=O)CCCCCCCCCCCCCCC)COP(=O)(O)OC[C@H](N)C(=O)O` [PS] here?
Its Kd is 1230 ± 245 nM.

From paper PMC8100071, “Lipid binding by the N-terminal motif mediates plasma membrane localization of Bordetella effector protein BteA” (The Journal of Biological Chemistry, 2021)
